target: GABAa receptor; experiment: GABAa receptor binding assay (displacement of 3H-RO15-1788, rat cortical tissue homogenate); conditions: 3H-RO15-1788 0.5 nM, 30 min at 4° C., pH 7.4
Experimental: The pharmaceutical utility of compounds of this invention are indicated by the following assay for GABAa receptor activity.
Assays are carried out as described in Thomas and Tallman (J. Bio. Chem. 156: 9838-9842, J. Neurosci. 3: 433-440, 1983). Rat conical tissue is dissected and homogenized in 25 volumes (w/v) of 0.05M Tris HCl buffer (pH 7.4 at 4° C.). The tissue homogenate is centrifuged in the cold (4°) at 20,000× g for 20'. The supernatant is decanted and the pellet is rehomogenized in the same volume of buffer and again centrifuged at 20,000× g. The supernatant is decanted and the pellet is frozen at -20° C. overnight. The pellet is then thawed and rehomogenized in 25 volume (original wt/vol) of buffer and the procedure is carried out twice. The pellet is finally resuspended in 50 volumes (w/vol of 0.05M Tris HCl buffer (pH 7.4 at […]).
Incubations contain 100 μl of tissue homogenate 100 μl of radioligand 0.5 nM (^3 H-RO15-1788 specific activity 80 Ci/mmol), drug or blocker and buffer to a total volume of 500 μl. Incubations are carried for 30 min at 4° C. then are rapidly filtered through GFB filters to separate free and bound ligand. Filters are washed twice with fresh 0.05M Tris HCl buffer (pH 7.4 at 4° C.) and counted in a liquid scintillation counter. 1.0 μM diazepam is added to some tubes to determine nonspecific binding. Data are collected in triplicate determinations, averaged and % inhibition of total specific binding is calculated. Total Specific Binding=Total-Nonspecific. In some cases, the amounts of unlabeled drugs is varied and total displacement curves of binding are carried out. Data are convened to a form for the calculation of IC50 and Hill Coefficient (nH).

Going from `CC(c1ccccc1)N1CCc2[nH]c(=O)n3cc(-c4ccccc4F)nc3c2C1` (racemic) [Compound 21, ±9-(α-Methylbenzyl)-2-(2-fluorophenyl)-7,8,9,10-tetrahydro-imidazo[1,2-c]pyrido[3,4-e] pyrimidin-5(6H)-one] to `O=C(c1ccccc1)N1CCc2[nH]c(=O)n3cc(-c4ccccc4F)nc3c2C1` [Compound 1, 9-Benzoyl-2-(2-fluorophenyl)-7,8,9,10-tetrahydro-imidazo[1,2-c]pyrido[3,4-e]pyrimidin-5(6H)-one], the IC50 rises from 0.0048 µM to 0.5 µM (100-fold). The first is the more potent here.

Going from `O=c1[nH]c2c(c3nc(-c4ccccc4F)cn13)CN(Cc1ccccc1F)CC2` [Compound 13, 9-(2-Fluorobenzyl)-2-(2-fluorophenyl)-7,8,9,10-tetrahydro-imidazo[1,2-c]pyrido[3,4-e] pyrimidin-5(6H)-one] to `O=c1[nH]c2c(c3nc(-c4ccccc4F)cn13)CN(Cc1ccc(F)cc1)CC2` [Compound 22, 9-(4-Fluorobenzyl)-2-(2-fluorophenyl)-7,8,9,10-tetrahydro-imidazo[1,2-c]pyrido[3,4-e]pyrimidin-5(6H)-one], the IC50 rises from 0.0024 µM to 0.0038 µM (1.6-fold). The first is the more potent here.

Compared with `O=c1[nH]c2c(c3nc(-c4cccc(Cl)c4)cn13)CN(Cc1ccccc1)CC2` [Compound 14, 9-Benzyl-2-(3-chlorophenyl)-7,8,9,10-tetrahydro-imidazo[1,2-c]pyrido[3,4-e] pyrimidin-5(6H)-one], `O=C(OCc1ccccc1)N1CCc2[nH]c(=O)n3cc(-c4ccccc4F)nc3c2C1` [Compound 44, 9-Carbobenzyloxy-2-(2-fluorophenyl)-7,8,9,10-tetrahydro-imidazo[1,2-c]pyrido[3,4-e]pyrimidin-5(6H)-one] is 10-fold lower in IC50: 0.1 µM for the first, 0.01 µM for the second. The second is the more potent here.

Going from `CCC(=O)N1CCc2[nH]c(=O)n3cc(-c4ccccc4F)nc3c2C1` [Compound 36, 9-propionyl-2-(2-fluorophenyl)-7,8,9,10-tetrahydro-imidazo[1,2-c]pyrido[3,4-e]pyrimidin-5(6H)-one] to `CN1CCc2[nH]c(=O)n3cc(-c4ccccc4F)nc3c2C1` [Compound 49, 9-Methyl-2-(2-fluorophenyl)-7,8,9,10-tetrahydro-imidazo[1,2-c]pyrido[3,4-e]pyrimidin-5(6H)-one], the IC50 rises from 0.01 µM to 0.03 µM (3-fold). The first is the more potent here.
